Assay results as given in BindingDB's records for doi:10.1016/j.bmcl.2013.03.113 (Vanderbilt University Medical Center, 2013).

Biological target: T1, Bone morphogenetic protein 4 (Mus musculus, UniProt P21275)
T1 sequence (P21275 whole entry): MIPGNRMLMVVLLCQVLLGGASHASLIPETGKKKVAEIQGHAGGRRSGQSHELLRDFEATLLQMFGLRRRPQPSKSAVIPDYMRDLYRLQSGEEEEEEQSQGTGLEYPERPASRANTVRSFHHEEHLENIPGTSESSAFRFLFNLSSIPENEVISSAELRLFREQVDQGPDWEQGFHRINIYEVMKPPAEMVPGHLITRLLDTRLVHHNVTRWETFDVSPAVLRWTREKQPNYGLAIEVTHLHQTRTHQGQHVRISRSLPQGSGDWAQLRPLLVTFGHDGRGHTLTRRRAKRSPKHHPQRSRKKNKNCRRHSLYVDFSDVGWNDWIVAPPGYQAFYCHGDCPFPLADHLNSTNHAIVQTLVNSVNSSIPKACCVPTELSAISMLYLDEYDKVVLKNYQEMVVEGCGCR
Assay: Inhibition of BMP4 in mouse C2C12BRA cells after 14 hrs by luciferase reporter gene assay

| SMILES | IC50 [nM] |
| --- | --- |
| c1ccc2c(-c3cnn4cc(-c5ccc(N6CCOCC6)cc5)cnc34)csc2c1 | 418 |
| Clc1cc(-c2cnn3cc(-c4ccc(N5CCOCC5)cc4)cnc23)ccn1 | 529 |
